Test results reported in patent publication US20100260680A1, “NOVEL BONE MASS INCREASING AGENT” (ORIENTAL YEAST CO., LTD., priority 2007, published 2010).
Bridges are numbered along the chain shown (N, C = ends). Where no end group is shown, it is not given here.

Experiments:
[1] = system: Human mesenchymal stem cells; test: ALP staining of human mesenchymal stem cells; type: cell-based; conditions: Day 7 after differentiation; compared with the control group
Method: Peptide D was added at a concentration of 300 μM during differentiation. On Day 7, cells were fixed with a 10% neutral buffer formalin solution, followed by re-fixation with an acetone/ethanol solution.
A stain solution (500 μL) prepared with the composition described below was added to the cells, followed by incubation at 37° C. for 10 minutes, washing with water, and drying.
Naphthol AS-MX phosphate (SIGMA): 5 mg
Fast blue hemi-salt (SIGMA): 30 mg

mouse tibia = test: DNA microarray analysis of tibia of mice given peptide D; type: in vivo; conditions: peptide D acetate 10 mg/kg s.c. three times daily for 5 days; n=2
Method: Total RNA (2 μg) extracted from the tibia of each mouse described in Example 24 was used for a DNA microarray (each group: n=2). According to a standard method, DNA microarray analysis (Mouse Genome 430 2.0 Affymetrix) was carried out. In addition, scanning was performed with a GeneChip Scanner 3000 (Affymetrix 690036) and digitalization was performed using the Gene Chip Operating Software ver. 1.4.

RAW264 cells = test: TRAP activity in RAW264 cells with GST-RANKL; type: cell-based
Method: Peptide E (SEQ ID NO: 16) was prepared from peptide D with the substitution of a single amino acid. TRAP activity and ALP activity were determined to compare peptide D and peptide E in terms of effects of causing osteoclast differentiation and osteoblast differentiation. RAW264 cells mixed with 10% FBS+αMEM (SIGMA) were seeded on a 96-well plate (2×10^3 cells/well). After confirmation of cell adhesion, the medium was replaced with 10% FBS+αMEM containing 10 nM GST-RANKL (Oriental Yeast Co., Ltd.). Peptide D and peptide E were separately added thereto at concentrations of 25, 50, 100, and 200 μM, followed by culture for 4 days. After the termination of culture, 100 μL acetone/ethanol was added to each well for cell fixation, followed by drying in a draft for 30 min.
In order to obtain a TRAP solution buffer at a concentration of 1.5 mg/mL, a solution was prepared by adjusting p-nitrophenyl phosphate (Nacalai) with 50 mM citric acid buffer and adding a 0.2 M sodium tartrate solution in a volume 1/10 that of citric acid buffer. The obtained TRAP solution buffer was added to each well in an amount of 100 μL followed by incubation at 37° C. for 45 min. Then, a 1N NaOH solution (50 μL) was added thereto to terminate the reaction. The OD value at 405 nm was determined for each well with a microplate reader (BMG Labtech) in the same manner as in Example 1.
RAW264 cells mixed with 10% FBS+αMEM (SIGMA) were seeded on a 96-well plate (2×10^3 cells/well). After cell adhesion had taken place, the medium was replaced with 10% FBS+αMEM containing 5 nM GST-RANKL (Oriental Yeast Co., Ltd.). Peptide D in the form of TFA, peptide D in the form of acetate, and peptide D in the form of hydrochloride with concentrations of 25 and 100 μM were separately added thereto, followed by culture for 4 days. After the completion of culture, acetone/ethanol (100 μL) was added to each well for cell fixation, followed by drying in a draft for 30 min. TRAP activity determination was carried out by the method described in Example 16. […] Peptide D in the form of hydrochloride was confirmed to have neither osteoblast differentiation activity nor osteoclastgenesis inhibition activity. However, peptide D in the form of acetate was confirmed to have higher osteoblast differentiation activity and lower osteoclastgenesis inhibition activity compared with peptide D in the form of TFA. […] It is also possible to produce modified peptide D having osteoblast differentiation activity alone or modified peptide D having osteoclastgenesis inhibition activity alone.

GSK3β = test: Western blotting of GSK3β phosphorylation in MC3T3-E1 cells; type: cell-based, mouse; conditions: 1 and 3 hours after the addition; 200 μM peptide D or 200 ng/ml BMP-2
Method: (§1) MC3T3-E1 cells mixed with 10% FBS+αMEM (SIGMA) were seeded on a 6-well plate (7.5×10^4 cells/well). […] The medium was removed at the respective time points shown in the relevant figures. PBS was added to the cells, and the cells were collected with a scraper (Falcon). A cell pellet was obtained via centrifugation at 1200 rpm for 5 min at 4° C. RIPA buffer (100 μL) was added to the collected pellet, for dissolution of the cellular membrane. Further, the resultant was centrifuged under conditions of 14500 rpm for 25 min at 4° C. The supernatant was collected as a cell extract. A portion of the cell extract was used for quantification of the protein concentration with the use of a BCA protein assay kit (PIERCE). For SDS-PAGE, a sample buffer in an amount that was ¼ that of the cell extract (Fermentas) was added thereto, followed by heating at 95° C. for 5 min. The prepared sample was applied in an amount of 7.5 or 10 μg to 10% polyacrylamide gel (BioRad), followed by electrophoresis at 170 V for 1 hour. After electrophoresis, the electrophoresed sample was transferred to a PVDF membrane (Millipore) at 80 mA for 40 min. The membrane was shaken in a blocking solution (Nacalai) at room temperature for 1 hour and then a primary antibody was added thereto, followed by shaking at room temperature for 1 hour at 4° C. for 12 hours. […]

Smad1/5/8 = test: Western blotting of Smad1/5/8 phosphorylation in MC3T3-E1 cells; type: cell-based, mouse; conditions: up to 3 hours after the addition; 200 μM peptide D or 200 ng/ml BMP-2
Method: as §1

peptide D: cyclic peptide of SEQ ID NO: 7, 9 amino acids, two cysteine residues bound via a disulfide bond; binds to RANKL (YCWSQYLCY; disulfide 2-8 (inferred))
ALP staining [1]: observed in a concentration-dependent manner
microarray signals of OC, ALP, CoL1 α2, PDGFc, PDGFRβ and IGF-1 in tibia (mouse tibia): significantly higher signals
TRAP activity (RAW264 cells; 25, 50, 100 and 200 μM, 10 nM GST-RANKL, 4 days): inhibit TRAP activity
TRAP activity, peptide D compared with peptide E (RAW264 cells; 100 and 200 μM): significant inhibition actions compared with peptide E
phosphorylation of GSK3β (GSK3β): confirmed to be induced
phosphorylation of Smad1/5/8 (Smad1/5/8): not induced
